Laboratory results reported in ChEMBL document CHEMBL5465560, “Selectivity Literature for EUbOPEN Chemogenomic Library” (2024).

Assays:
[1] = target: T1, Protein kinase C epsilon type (Homo sapiens) (UniProt Q02156); test: Selectivity interaction (Kinase panel (Z-LYTE Assay)) EUB0001632a PRKCE; conditions: at 10 µM
T1 sequence (whole entry): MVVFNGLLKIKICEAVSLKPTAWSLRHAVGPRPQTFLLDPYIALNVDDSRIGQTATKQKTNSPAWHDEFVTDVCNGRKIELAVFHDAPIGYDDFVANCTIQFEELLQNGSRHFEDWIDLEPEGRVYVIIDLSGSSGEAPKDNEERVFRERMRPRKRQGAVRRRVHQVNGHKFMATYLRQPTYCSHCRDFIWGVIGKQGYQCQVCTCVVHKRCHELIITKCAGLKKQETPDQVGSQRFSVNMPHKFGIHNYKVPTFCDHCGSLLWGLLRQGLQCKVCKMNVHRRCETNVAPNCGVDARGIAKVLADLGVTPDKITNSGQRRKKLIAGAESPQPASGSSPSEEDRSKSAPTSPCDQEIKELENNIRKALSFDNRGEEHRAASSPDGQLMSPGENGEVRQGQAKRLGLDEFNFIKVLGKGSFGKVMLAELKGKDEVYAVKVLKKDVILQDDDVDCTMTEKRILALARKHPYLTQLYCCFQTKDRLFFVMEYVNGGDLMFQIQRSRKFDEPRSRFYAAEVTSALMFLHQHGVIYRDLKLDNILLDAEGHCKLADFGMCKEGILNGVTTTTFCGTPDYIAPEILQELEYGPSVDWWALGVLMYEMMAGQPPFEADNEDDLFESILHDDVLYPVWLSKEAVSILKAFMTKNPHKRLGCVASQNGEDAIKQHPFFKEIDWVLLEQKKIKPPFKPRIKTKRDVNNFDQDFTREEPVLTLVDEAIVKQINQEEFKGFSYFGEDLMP

[2] = target: Protein kinase C theta type (Homo sapiens, UniProt Q04759); conditions: at 10 µM
[3] = target: T2, Mitogen-activated protein kinase kinase kinase kinase 2 (Homo sapiens) (UniProt Q12851); test: Selectivity interaction (KinomeScan (DiscoverX)) EUB0001049a MAP4K2; conditions: at 1 µM
T2 sequence (whole entry): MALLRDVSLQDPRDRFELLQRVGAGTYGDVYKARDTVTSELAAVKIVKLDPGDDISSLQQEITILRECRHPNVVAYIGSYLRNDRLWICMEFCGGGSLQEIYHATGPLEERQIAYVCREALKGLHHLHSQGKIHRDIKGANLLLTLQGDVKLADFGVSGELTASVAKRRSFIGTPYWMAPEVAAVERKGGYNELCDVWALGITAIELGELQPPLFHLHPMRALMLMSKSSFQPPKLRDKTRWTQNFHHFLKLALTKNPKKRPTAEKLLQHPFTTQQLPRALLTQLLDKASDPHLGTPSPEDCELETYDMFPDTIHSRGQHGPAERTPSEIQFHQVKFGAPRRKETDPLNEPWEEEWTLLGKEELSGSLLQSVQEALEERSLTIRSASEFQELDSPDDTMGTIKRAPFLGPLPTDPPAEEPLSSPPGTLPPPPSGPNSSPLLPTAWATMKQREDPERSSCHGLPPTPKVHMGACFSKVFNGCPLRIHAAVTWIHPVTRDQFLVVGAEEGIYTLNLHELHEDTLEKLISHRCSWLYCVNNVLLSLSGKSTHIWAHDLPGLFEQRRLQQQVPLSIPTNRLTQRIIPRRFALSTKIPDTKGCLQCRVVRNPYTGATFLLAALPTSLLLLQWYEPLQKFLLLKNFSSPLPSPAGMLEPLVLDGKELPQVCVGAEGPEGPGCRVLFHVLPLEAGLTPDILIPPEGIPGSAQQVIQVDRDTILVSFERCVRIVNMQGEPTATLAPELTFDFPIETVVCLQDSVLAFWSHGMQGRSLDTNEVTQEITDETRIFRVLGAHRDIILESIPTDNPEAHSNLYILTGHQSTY

[4] = target: T3, Ephrin type-B receptor 1 (Homo sapiens) (UniProt P54762); test: Selectivity interaction (ProQinase) EUB0000171b EPHB1
T3 sequence (whole entry): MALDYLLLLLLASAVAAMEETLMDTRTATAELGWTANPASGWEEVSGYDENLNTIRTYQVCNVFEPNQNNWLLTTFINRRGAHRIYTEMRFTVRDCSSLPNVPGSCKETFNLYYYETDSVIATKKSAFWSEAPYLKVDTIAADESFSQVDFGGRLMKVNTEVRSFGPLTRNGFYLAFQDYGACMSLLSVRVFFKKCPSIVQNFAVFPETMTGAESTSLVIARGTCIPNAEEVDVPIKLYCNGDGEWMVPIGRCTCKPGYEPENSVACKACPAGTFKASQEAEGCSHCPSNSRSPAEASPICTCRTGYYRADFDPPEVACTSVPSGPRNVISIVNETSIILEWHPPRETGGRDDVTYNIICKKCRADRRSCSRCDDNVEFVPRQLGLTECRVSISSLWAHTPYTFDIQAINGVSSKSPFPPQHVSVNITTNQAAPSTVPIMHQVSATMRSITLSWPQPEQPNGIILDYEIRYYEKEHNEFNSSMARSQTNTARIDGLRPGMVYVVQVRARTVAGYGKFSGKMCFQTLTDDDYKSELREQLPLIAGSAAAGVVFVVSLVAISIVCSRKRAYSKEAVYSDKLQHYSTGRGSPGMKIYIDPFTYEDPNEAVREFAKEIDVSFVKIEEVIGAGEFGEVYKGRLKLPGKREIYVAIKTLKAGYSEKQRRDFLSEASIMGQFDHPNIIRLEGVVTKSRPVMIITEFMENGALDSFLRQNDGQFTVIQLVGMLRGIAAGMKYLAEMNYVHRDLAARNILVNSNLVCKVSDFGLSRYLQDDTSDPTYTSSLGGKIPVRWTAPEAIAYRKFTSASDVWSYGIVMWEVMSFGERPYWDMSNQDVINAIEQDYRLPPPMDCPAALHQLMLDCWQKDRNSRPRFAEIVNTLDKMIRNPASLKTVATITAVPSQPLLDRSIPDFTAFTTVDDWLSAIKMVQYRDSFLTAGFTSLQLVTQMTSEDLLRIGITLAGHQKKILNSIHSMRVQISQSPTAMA

[5] = target: Cyclin-dependent kinase 17 (Homo sapiens) (UniProt Q00537); test: Selectivity interaction (KinomeScan (DiscoverX)) EUB0000618a CDK17; conditions: at 10 µM
[6] = target: Tyrosine-protein kinase Fer (Homo sapiens) (UniProt P16591); test: Selectivity interaction (ActivX KiNativ screen (kinase selectivity in THP-1 cell lysates)) EUB0000639a FER; type: subcellular; conditions: lysate, at 0.04 µM
[7] = target: Cyclin-dependent kinase 14 (Homo sapiens) (UniProt O94921); test: Selectivity interaction (KinomeScan (DiscoverX)) EUB0000655a CDK14; conditions: at 10 µM
[8] = target: Glycogen synthase kinase-3 beta (Homo sapiens, UniProt P49841); test: Selectivity interaction (KinomeScan (DiscoverX)) EUB0000655a GSK3B; conditions: at 10 µM
[9] = target: Cyclin-dependent kinase 7 (Homo sapiens, UniProt P50613); test: Selectivity interaction (KinomeScan (DiscoverX)) EUB0000092b CDK7; conditions: at 10 µM
Cyclin-dependent kinase 7, sequence (P50613 whole entry): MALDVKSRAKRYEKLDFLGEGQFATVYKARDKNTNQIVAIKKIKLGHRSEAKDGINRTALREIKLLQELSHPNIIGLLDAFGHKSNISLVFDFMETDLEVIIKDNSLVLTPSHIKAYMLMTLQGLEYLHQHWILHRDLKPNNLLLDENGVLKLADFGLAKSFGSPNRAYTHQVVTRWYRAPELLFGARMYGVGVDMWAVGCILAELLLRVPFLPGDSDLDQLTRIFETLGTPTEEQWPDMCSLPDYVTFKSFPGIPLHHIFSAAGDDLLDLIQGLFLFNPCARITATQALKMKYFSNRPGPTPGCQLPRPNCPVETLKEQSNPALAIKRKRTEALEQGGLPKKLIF

Protein kinase C theta type, sequence (Q04759 whole entry, looked up): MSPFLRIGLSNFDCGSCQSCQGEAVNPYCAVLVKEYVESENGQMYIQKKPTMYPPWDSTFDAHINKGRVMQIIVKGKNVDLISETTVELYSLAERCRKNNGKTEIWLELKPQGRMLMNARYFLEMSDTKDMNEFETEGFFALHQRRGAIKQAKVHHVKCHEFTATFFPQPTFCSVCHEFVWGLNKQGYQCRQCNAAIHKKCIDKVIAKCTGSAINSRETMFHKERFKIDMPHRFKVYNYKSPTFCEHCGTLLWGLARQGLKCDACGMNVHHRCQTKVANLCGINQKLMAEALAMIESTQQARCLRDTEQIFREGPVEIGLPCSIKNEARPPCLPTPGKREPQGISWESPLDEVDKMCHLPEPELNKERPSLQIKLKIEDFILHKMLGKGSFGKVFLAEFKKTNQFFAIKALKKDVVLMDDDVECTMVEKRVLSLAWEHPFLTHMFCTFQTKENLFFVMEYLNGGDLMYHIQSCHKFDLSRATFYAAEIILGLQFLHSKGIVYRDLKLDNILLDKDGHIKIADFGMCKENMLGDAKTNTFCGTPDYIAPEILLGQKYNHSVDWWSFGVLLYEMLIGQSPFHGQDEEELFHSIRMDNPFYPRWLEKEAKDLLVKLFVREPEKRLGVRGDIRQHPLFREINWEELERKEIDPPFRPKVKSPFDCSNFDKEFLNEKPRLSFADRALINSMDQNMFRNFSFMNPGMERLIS
Cyclin-dependent kinase 17 (Homo sapiens), sequence (Q00537 whole entry, looked up): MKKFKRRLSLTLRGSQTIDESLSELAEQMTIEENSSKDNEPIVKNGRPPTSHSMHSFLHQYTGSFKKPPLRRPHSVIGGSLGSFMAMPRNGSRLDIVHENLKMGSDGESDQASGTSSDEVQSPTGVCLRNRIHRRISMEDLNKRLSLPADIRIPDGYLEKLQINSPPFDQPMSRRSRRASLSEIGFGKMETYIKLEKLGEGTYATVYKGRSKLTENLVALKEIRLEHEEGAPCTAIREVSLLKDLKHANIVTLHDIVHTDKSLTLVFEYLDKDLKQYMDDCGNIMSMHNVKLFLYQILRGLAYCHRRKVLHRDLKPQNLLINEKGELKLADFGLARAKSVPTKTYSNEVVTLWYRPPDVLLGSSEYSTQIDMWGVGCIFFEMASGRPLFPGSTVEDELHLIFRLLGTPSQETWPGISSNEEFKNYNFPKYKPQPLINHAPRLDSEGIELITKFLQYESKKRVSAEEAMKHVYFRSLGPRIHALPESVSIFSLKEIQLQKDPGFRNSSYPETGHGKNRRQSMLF
Tyrosine-protein kinase Fer (Homo sapiens), sequence (P16591 whole entry, looked up): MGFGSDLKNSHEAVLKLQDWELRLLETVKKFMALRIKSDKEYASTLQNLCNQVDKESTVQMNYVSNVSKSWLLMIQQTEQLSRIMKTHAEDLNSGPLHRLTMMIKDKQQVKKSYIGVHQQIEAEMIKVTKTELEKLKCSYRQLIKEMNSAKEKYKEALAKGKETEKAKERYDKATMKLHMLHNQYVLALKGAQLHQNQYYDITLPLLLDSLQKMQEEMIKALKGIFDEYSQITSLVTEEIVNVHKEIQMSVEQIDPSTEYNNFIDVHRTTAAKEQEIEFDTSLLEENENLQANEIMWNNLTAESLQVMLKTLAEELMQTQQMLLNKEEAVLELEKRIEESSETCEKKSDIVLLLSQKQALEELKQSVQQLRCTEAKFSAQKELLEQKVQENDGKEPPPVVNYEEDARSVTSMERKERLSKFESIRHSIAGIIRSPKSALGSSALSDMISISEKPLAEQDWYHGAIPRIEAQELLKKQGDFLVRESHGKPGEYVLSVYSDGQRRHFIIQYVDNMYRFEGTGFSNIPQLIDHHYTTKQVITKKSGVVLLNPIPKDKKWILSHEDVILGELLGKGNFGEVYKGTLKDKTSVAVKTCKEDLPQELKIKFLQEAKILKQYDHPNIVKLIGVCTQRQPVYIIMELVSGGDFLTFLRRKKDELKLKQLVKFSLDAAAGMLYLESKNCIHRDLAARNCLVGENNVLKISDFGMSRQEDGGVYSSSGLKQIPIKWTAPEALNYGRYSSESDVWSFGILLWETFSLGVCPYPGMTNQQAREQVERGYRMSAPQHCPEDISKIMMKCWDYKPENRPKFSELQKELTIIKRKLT
Cyclin-dependent kinase 14 (Homo sapiens), sequence (O94921 whole entry): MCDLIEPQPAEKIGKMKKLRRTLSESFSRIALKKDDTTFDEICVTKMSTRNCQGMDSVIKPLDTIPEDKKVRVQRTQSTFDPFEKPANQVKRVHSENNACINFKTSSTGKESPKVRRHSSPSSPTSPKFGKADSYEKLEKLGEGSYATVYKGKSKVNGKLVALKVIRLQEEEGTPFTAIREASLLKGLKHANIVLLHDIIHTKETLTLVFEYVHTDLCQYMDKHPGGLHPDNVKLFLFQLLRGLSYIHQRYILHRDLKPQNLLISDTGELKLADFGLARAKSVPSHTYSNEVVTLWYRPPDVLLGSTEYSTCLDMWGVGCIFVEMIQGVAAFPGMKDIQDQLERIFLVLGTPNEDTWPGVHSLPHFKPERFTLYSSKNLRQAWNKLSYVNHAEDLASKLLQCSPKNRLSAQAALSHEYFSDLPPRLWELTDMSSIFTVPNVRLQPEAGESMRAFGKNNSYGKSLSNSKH
Glycogen synthase kinase-3 beta, sequence (P49841 whole entry, looked up): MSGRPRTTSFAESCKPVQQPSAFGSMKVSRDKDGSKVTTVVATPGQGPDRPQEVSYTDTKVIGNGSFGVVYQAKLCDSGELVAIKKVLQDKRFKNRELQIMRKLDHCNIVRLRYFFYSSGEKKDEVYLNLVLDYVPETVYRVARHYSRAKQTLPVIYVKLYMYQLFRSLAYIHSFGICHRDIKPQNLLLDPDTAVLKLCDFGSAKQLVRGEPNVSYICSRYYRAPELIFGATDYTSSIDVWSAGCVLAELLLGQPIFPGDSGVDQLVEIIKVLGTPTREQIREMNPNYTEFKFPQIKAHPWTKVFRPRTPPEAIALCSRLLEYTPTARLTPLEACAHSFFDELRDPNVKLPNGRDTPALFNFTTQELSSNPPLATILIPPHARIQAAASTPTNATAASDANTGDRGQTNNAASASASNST

`Cn1cc(-n2cnc3c(NCc4nc5cc(Cl)c(Cl)cc5[nH]4)nc(N4CCOCC4)nc32)cn1` gave a % of control [1] of -8.31%.
`Cc1cc([C@@H](C)Nc2ccccc2C(=O)O)c2nc(N3CCOCC3)cc(=O)n2c1` [AZD-6482] gave a % of control [2] of 97%.
`COc1cc(Nc2nc(C)cc(-c3cnn4nc(OC)ccc34)n2)cc(C(F)(F)F)c1` showed a % of control [3] of 99%.
`C=CC(=O)Nc1cccc(C(=O)Nc2ccc(Nc3cc(-c4[nH]c(SC)nc4C)ccn3)cc2)c1` showed a % of control ([4]; at 1 µM) of 83% and a % of control ([4]; at 5 µM) of 82%.
Molecule `O[C@H]1CC[C@H](Nc2ncc3nc(Nc4c(F)cc(F)cc4F)n([C@H]4CCOC4)c3n2)CC1` has a % of control [5] of 100%.
With `CC[C@@H]1[C@H](F)C(=O)N[C@@H]1COc1nccc2cc(C(N)=O)c(OC)cc12` [ZIMLOVISERTIB] the % of inhibition [6] was -11.5%.
Work on `CN(C)CCOc1ccc(-c2nc(-c3ccncc3)c(-c3ccc4c(c3)CC/C4=N\O)[nH]2)cc1` yielded a % of control [7] of 100% and a % of control [8] of 81%.
For `CCC(=O)N1CCN(c2ccc(-n3c(=O)ccc4cnc5ccc(-c6cnc7ccccc7c6)cc5c43)cc2C(F)(F)F)CC1`, the % of control [9] was 57%.
